{"source": "ChEMBL document CHEMBL1146485", "about": "“Plant substances as anti-HIV agents selected according to their putative mechanism of action” (J Nat Prod, 2004)", "key": {"[1]": {"system": "Human immunodeficiency virus 1", "test": "Selectivity for HIV1 integrase over HIV1 reverse transcriptase"}, "[2]": {"test": "Elimination half life in po dosed human", "type": "ADME, organism-based", "conditions": "in vivo, read-out: beta t1/2 (converted)"}}, "data": [{"smiles": "O=C(/C=C/c1ccc(O)c(O)c1)O[C@@H]1C[C@](O)(C(=O)O)C[C@@H](OC(=O)/C=C/c2ccc(O)c(O)c2)[C@H]1O", "values": [{"measurement": "fold change (FC)", "setting": "[1]", "result": 10}]}, {"smiles": "CCCc1cc(=O)oc2c3c(c4c(c12)OC(C)(C)C=C4)O[C@H](C)[C@@H](C)[C@@H]3O", "note": "[CALANOLIDE A]", "values": [{"measurement": "half-life", "setting": "[2]", "result": 15, "unit": "h"}]}, {"smiles": "O=C(/C=C/c1ccc(O)c(O)c1)O[C@@H](C(=O)O)[C@@H](OC(=O)/C=C/c1ccc(O)c(O)c1)C(=O)O", "values": [{"measurement": "fold change (FC)", "setting": "[1]", "result": 10}]}]}
